Results published in ChEMBL document CHEMBL4483862, “Open-source discovery of chemical leads for next-generation chemoprotective antimalarials” (2018).

Tested on: Plasmodium berghei
Test: Luciferase/luciferin-expressing antifolate-resistant parasites were used to infect a culture of HepG2 cells that were pre-incubated with compounds. Infected hepatocytes emit light due to the luciferase reaction. Assay results are presented as the percent inhibition of light emission compared to control. […]
Assay type: functional
Settings: sporozoite; for IC90: read-out: LUCIFERASE INFECTION ASSAY - IC90
[1] = read-out: LUCIFERASE INFECTION ASSAY - IC50

| Compound | IC50 [1] [µM] | IC90 [µM] | other results |
| --- | --- | --- | --- |
| COc1ccc(CNC(=O)N2CCc3nc(NCc4cccc(Oc5ccccc5)c4)ncc3C2)cc1 | > 6.66 | > 6.66 |  |
| CN(C)C(=O)c1ccc(-c2cnc3cnc(-c4ccc(F)c(Cl)c4)cn23)cc1 | > 8.36 | > 8.36 |  |
| Nc1nccnc1C(=O)Nc1ccc(C23CC4CC(CC(C4)C2)C3)cc1 |  | 9.45 | IC50 (FFLUC_HILL_SLOPE 1.35, FFLUC_R_SQUARED 0.9, PBLUC_HILL_SLOPE 1.78, PBLUC_R_SQUARED 0.606, read-out: LUCIFERASE INFECTION ASSAY - IC50): 2.75 µM |
| CCOc1ccccc1N/C=C1/C(=O)N(Cc2ccc3c(c2)OCO3)C(=O)c2ccccc21 | > 10 | > 10 |  |
| COc1cccc(Nc2nc(-c3ccc(CCC(C)NC(C)=O)cc3)cs2)c1 (stereo not given) |  | 8.54 | IC50 (HEPG2TOX_HILL_SLOPE 17.1, HEPG2TOX_R_SQUARED 0.93, PBLUC_HILL_SLOPE 0.895, PBLUC_R_SQUARED 0.745, read-out: LUCIFERASE INFECTION ASSAY - IC50): 0.734 µM |
| Clc1ccc(-c2cn3c(-c4ccc5c(c4)OCO5)cnc3cn2)cc1 |  | 6.85 | IC50 (HEPG2TOX_HILL_SLOPE 1.51, HEPG2TOX_R_SQUARED 0.989, PBLUC_HILL_SLOPE 1.79, PBLUC_R_SQUARED 0.647, read-out: LUCIFERASE INFECTION ASSAY - IC50): 2.01 µM |
| CCOC(=O)c1cc(C#N)c(C)nc1Sc1ccccc1NC(=O)Nc1ccc(SC(F)(F)F)cc1 | > 6.2 | > 6.2 |  |
| Cn1ccnc1Sc1ncnc2sccc12 |  | 3.92 | IC50 (PBLUC_HILL_SLOPE 5.04, PBLUC_R_SQUARED 0.521, read-out: LUCIFERASE INFECTION ASSAY - IC50): 2.53 µM |
| CC(=O)c1c(C)[nH]c(C(=O)Nc2ccc3ccccc3n2)c1C | 0.934 | 1.16 |  |
| Cc1csc(CNc2nc(-c3cccnc3)nc3sc(C)c(C)c23)n1 |  | 5.63 | IC50 (PBLUC_HILL_SLOPE 1.92, PBLUC_R_SQUARED 0.84, read-out: LUCIFERASE INFECTION ASSAY - IC50): 1.79 µM |
| CCc1cccc2c(C3=NNC(=Nc4cccc(S(=O)(=O)N(C)C)c4)SC3)c[nH]c12 |  | 3.4 | IC50 (HEPG2TOX_HILL_SLOPE 2.11, HEPG2TOX_R_SQUARED 0.991, PBLUC_HILL_SLOPE 17, PBLUC_R_SQUARED 0.266, read-out: LUCIFERASE INFECTION ASSAY - IC50): 2.99 µM |
| COc1ccc(Cl)cc1N1C(=O)/C(=C\c2sccc2C)N=C1SCc1cc(=O)n2ccsc2n1 |  | > 10 | IC50 (FFLUC_HILL_SLOPE 14.8, FFLUC_R_SQUARED 0.288, PBLUC_HILL_SLOPE 0.636, PBLUC_R_SQUARED 0.525, read-out: LUCIFERASE INFECTION ASSAY - IC50): 2.55 µM |
| COc1cccc(Nc2nc(C(N)Cc3ccc(F)cc3)cs2)n1 (stereo not given) | > 9.58 | > 9.58 |  |
| c1ccc(-n2nnnc2Sc2ncnc3sc4c(c23)CCC4)cc1 | > 10 | > 10 |  |
| Cn1cc(CN2CCc3c(c(C(=O)NCc4nccs4)nn3Cc3ccccc3)C2)c2ccccc21 |  | 5.73 | IC50 (HEPG2TOX_HILL_SLOPE 6.66, HEPG2TOX_R_SQUARED 0.254, PBLUC_HILL_SLOPE 4.38, PBLUC_R_SQUARED 0.819, read-out: LUCIFERASE INFECTION ASSAY - IC50): 3.47 µM |
| O=C1c2n[nH]c(-c3ccccc3O)c2C(c2ccccc2F)N1Cc1ccco1 (stereo not given) |  | > 8.47 | IC50 (FFLUC_HILL_SLOPE 2.17, FFLUC_R_SQUARED 0.481, read-out: LUCIFERASE INFECTION ASSAY - IC50): > 8.47 µM |
| Cc1cccc(NC(=O)CN(C)C(=O)/C=C/c2ccccc2)c1C | > 10 | > 10 |  |
| O=C(NNC(=O)c1sc(-c2ccco2)nc1-c1ccccc1)c1ccccn1 |  | 3.33 | IC50 (HEPG2TOX_HILL_SLOPE 1.58, HEPG2TOX_R_SQUARED 0.893, PBLUC_HILL_SLOPE 37.6, PBLUC_R_SQUARED 0.722, read-out: LUCIFERASE INFECTION ASSAY - IC50): 3.14 µM |
| COc1cc(Br)cc(/C=N/NC(=S)NC(C)(C)C)c1O |  | 6.76 | IC50 (PBLUC_HILL_SLOPE 63.8, PBLUC_R_SQUARED 0.286, read-out: LUCIFERASE INFECTION ASSAY - IC50): 6.53 µM |
| CCCn1c(C)cc(C(=O)COC(=O)C2=COCCO2)c1C |  | > 10 | IC50 (FFLUC_HILL_SLOPE 0.919, FFLUC_R_SQUARED 0.757, PBLUC_HILL_SLOPE 0.614, PBLUC_R_SQUARED 0.12, read-out: LUCIFERASE INFECTION ASSAY - IC50): 0.839 µM |

| Compound | IC50 [1] [µM] | IC90 [µM] | other results |
| --- | --- | --- | --- |
| COCC(C)n1c(C)cc(C(=O)CSc2ccc(NC(C)=O)cc2)c1C (stereo not given) |  | > 10 | IC50 (PBLUC_HILL_SLOPE 0.698, PBLUC_R_SQUARED 0.74, read-out: LUCIFERASE INFECTION ASSAY - IC50): 0.948 µM |
| O=C(Nc1ncccc1O)c1ccc(N2CCOCC2)nc1 |  | 4.08 | IC50 (FFLUC_HILL_SLOPE 6.17, FFLUC_R_SQUARED 0.111, PBLUC_HILL_SLOPE 1.25, PBLUC_R_SQUARED 0.907, read-out: LUCIFERASE INFECTION ASSAY - IC50): 0.705 µM |
| COc1ccc(CSc2nnc(CSc3cccs3)n2C)cc1 | > 9.08 | > 9.08 |  |
| CC(C)(C)c1cc(NS(=O)(=O)c2cc(C(F)(F)F)cc(C(F)(F)F)c2)c(C#N)s1 |  | 2.55 | IC50 (HEPG2TOX_HILL_SLOPE 3.04, HEPG2TOX_R_SQUARED 0.973, PBLUC_HILL_SLOPE 26.7, PBLUC_R_SQUARED 0.729, read-out: LUCIFERASE INFECTION ASSAY - IC50): 2.35 µM |
| CC(C)(O)C#Cc1ccc(/C=N/Nc2ccc(I)cc2)cc1 |  | > 8.16 | IC50 (PBLUC_HILL_SLOPE 9.96, PBLUC_R_SQUARED 0.415, read-out: LUCIFERASE INFECTION ASSAY - IC50): 7.16 µM |
| O=C(Nc1nonc1-c1cccs1)c1cccc(Cl)c1 |  | > 10.8 | IC50 (HEPG2TOX_HILL_SLOPE 10.4, HEPG2TOX_R_SQUARED 0.681, PBLUC_HILL_SLOPE 17.7, PBLUC_R_SQUARED 0.0482, read-out: LUCIFERASE INFECTION ASSAY - IC50): 9.87 µM |
| Cc1ccc(C2=NN=C/C2=N\Nc2cc(Cl)cc(Cl)c2)cc1 |  | 3.57 | IC50 (FFLUC_HILL_SLOPE 4.14, FFLUC_R_SQUARED 0.778, HEPG2TOX_HILL_SLOPE 3.13, HEPG2TOX_R_SQUARED 0.962, PBLUC_HILL_SLOPE 34.3, PBLUC_R_SQUARED 0.21, read-out: LUCIFERASE INFECTION ASSAY - IC50): 3.34 µM |
| CCN(c1ccc(-c2csc(Nc3ccc4c(c3)OCCO4)n2)cc1)S(C)(=O)=O |  | 5.7 | IC50 (FFLUC_HILL_SLOPE 1.56, FFLUC_R_SQUARED 0.608, HEPG2TOX_HILL_SLOPE 4.65, HEPG2TOX_R_SQUARED 0.413, PBLUC_HILL_SLOPE 3.4, PBLUC_R_SQUARED 0.614, read-out: LUCIFERASE INFECTION ASSAY - IC50): 2.99 µM |
| CCN(C(=O)c1ccc(NC(=O)C2CC2)s1)c1ccccc1C |  | > 10 | IC50 (PBLUC_HILL_SLOPE 5.48, PBLUC_R_SQUARED 0.146, read-out: LUCIFERASE INFECTION ASSAY - IC50): 9.18 µM |
| Cc1ccc(C)c(Oc2ccc(NC(=O)Nc3ccc(SC(F)(F)F)cc3)cn2)c1 |  | 2.68 | IC50 (FFLUC_HILL_SLOPE 0.447, FFLUC_R_SQUARED 0.395, HEPG2TOX_HILL_SLOPE 4.72, HEPG2TOX_R_SQUARED 0.964, PBLUC_HILL_SLOPE 32.1, PBLUC_R_SQUARED 0.384, read-out: LUCIFERASE INFECTION ASSAY - IC50): 2.5 µM |
| COc1ccc(-c2cnc3sc(NCCc4ccc(S(N)(=O)=O)cc4)nn23)cc1OC |  | 6.81 | IC50 (PBLUC_HILL_SLOPE 16.2, PBLUC_R_SQUARED 0.321, read-out: LUCIFERASE INFECTION ASSAY - IC50): 5.94 µM |
| CCC1CCCCN1CC(O)COC(c1ccc(Cl)cc1)c1ccc(Cl)cc1 (stereo not given) |  | > 10 | IC50 (PBLUC_HILL_SLOPE 1.73, PBLUC_R_SQUARED 0.487, read-out: LUCIFERASE INFECTION ASSAY - IC50): 5.6 µM |
| Cc1ccc(CCCNC(=O)c2cc(C3CC3)n[nH]2)c(C)c1 |  | 4.2 | IC50 (PBLUC_HILL_SLOPE 15.6, PBLUC_R_SQUARED 0.22, read-out: LUCIFERASE INFECTION ASSAY - IC50): 3.65 µM |
| C=CC/N=c1\scc(-c2ccc(Br)s2)n1/N=C/c1ccccc1[N+](=O)[O-] | > 10 | > 10 |  |
| COc1cc(C(=O)c2c(-c3ccccc3)cc3ccccn23)cc(OC)c1OC |  | 0.409 | IC50 (HEPG2TOX_HILL_SLOPE 0.582, HEPG2TOX_R_SQUARED 0.857, PBLUC_HILL_SLOPE 12.9, PBLUC_R_SQUARED 0.72, read-out: LUCIFERASE INFECTION ASSAY - IC50): 0.344 µM |
| CN(C(=O)CN1C(=O)NC(c2ccccc2)(c2ccccc2)C1=O)C1CCCc2ccccc21 (stereo not given) |  | > 10 | IC50 (PBLUC_HILL_SLOPE 2.94, PBLUC_R_SQUARED 0.848, read-out: LUCIFERASE INFECTION ASSAY - IC50): 5.62 µM |
| O=[N+]([O-])c1c[nH]c(-c2csc(-n3nccc3C(F)(F)F)n2)c1 | 1.82 | 4.09 |  |
| COC(=O)c1sccc1Oc1ccc(C(F)(F)F)cc1NC(=O)Nc1c(Cl)cc(Cl)cc1Cl | > 6.11 | > 6.11 |  |
| Cc1ccccc1C(=O)Nc1nc2ccccn2c1C(=O)NC1CCCCC1 |  | > 8.77 | IC50 (HEPG2TOX_HILL_SLOPE 2.99, HEPG2TOX_R_SQUARED 0.96, PBLUC_HILL_SLOPE 20.4, PBLUC_R_SQUARED 0.198, read-out: LUCIFERASE INFECTION ASSAY - IC50): 7.88 µM |
| CS(=O)(=O)Nc1cccc(-c2cn3c(-c4ccc5c(c4)OCO5)cnc3cn2)c1 |  | > 8.08 | IC50 (PBLUC_HILL_SLOPE 1.71, PBLUC_R_SQUARED 0.507, read-out: LUCIFERASE INFECTION ASSAY - IC50): 6.08 µM |
